# In ChEMBL document CHEMBL1157253, “ent-rosane and labdane diterpenoids from Sagittaria sagittifolia and their antibacterial activity against three oral pathogens” (2006):
# Activity calls are given as the source filed them. No cut-off for these calls is given here.
# Experiments:
# Format in all cases: functional
# [1] = system: Aggregatibacter actinomycetemcomitans; experiment: Antibacterial activity against Actinobacillus actinomycetemcommitans ATCC 43717 after 1 to 2 days under anaerobic condition by serial dilution method
# Streptococcus mutans = experiment: Antibacterial activity against Streptococcus mutans ATCC 25175 after 1 to 2 days under anaerobic condition by serial dilution method
# Actinomyces naeslundii = experiment: Antibacterial activity against Actinomyces naeslundii ATCC 12104 after 1 to 2 days under anaerobic condition by serial dilution method
MIC (Streptococcus mutans),MIC [1],MIC (Actinomyces naeslundii),Compound,Activity [1]
–,–,–,C=C[C@@]1(C)CC[C@@]2(C)[C@@H](CC=C3[C@@H]2CCC[C@]3(C)CO[C@@H]2O[C@@H](COC(C)=O)[C@H](OC(C)=O)[C@H]2O)C1,inactive
–,–,–,C=C[C@@]1(C)CC[C@@]2(C)[C@@H](CC[C@]3(O)[C@@H]2CCC[C@]3(C)C(=O)O)C1,inactive
62.5 µg/mL,> 250 µg/mL,62.5 µg/mL,C=C[C@@]1(C)CC[C@@]2(C)[C@@H](CC=C3[C@@H]2CCC[C@]3(C)C(=O)O)C1 [SAGITTINE A],–
62.5 µg/mL,250 µg/mL,125 µg/mL,C=C[C@@]1(C)CC[C@@]2(C)[C@@H](CC=C3[C@@H]2CCC[C@]3(C)CO[C@@H]2O[C@@H](CO)[C@H](O)[C@H]2O)C1 [SAGITTINE B],–
62.5 µg/mL,250 µg/mL,62.5 µg/mL,C=C[C@@]1(C)CC[C@@]2(C)[C@@H](CC=C3[C@@H]2CCC[C@]3(C)CO[C@@H]2O[C@@H](COC(C)=O)[C@H](O)[C@H]2O)C1 [SAGITTINE C],–
125 µg/mL,250 µg/mL,125 µg/mL,C=C[C@@]1(C)CC[C@@]2(C)[C@@H](CC=C3[C@@H]2CCC[C@]3(C)CO[C@@H]2O[C@@H](CO)[C@H](O)[C@H]2OC(C)=O)C1 [SAGITTINE D],–
> 250 µg/mL,> 250 µg/mL,62.5 µg/mL,C=C[C@@]1(C)CC[C@@]2(C)[C@@H](CC=C3[C@@H]2CCC[C@]3(C)CO[C@@H]2O[C@@H](COC(C)=O)[C@H](O)[C@H]2OC(C)=O)C1 [SAGITTINE E],–
